Our source for the MIC values is PubChem BioAssay AID2691 (Broad Institute, 2010).

This experiment concerns NIH 3T3 viability, Alamar Blue fluorescence, 3 days. As to the kind of experiment: NIH 3T3 cell viability reduction, dose response, cytotoxicity control for polyadenylation inhibitor project, Alamar Blue fluorescence, MIC (AID 2691).

≈ marks a conversion by molar mass, not a printed value. Records with an inconclusive call do not appear. Calls of active or inactive are those of the source.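 Rule for the calls: active = dose-dependent viability drop with mean lowest dose clearly under solvent controls below the top tested dose; inconclusive = self-fluorescent without titration, or replicates split around top dose; inactive = no such drop up to the top dose.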

On to `COc1cc(/C=C2/CC/C(=C/c3ccc(O)c(OC)c3)C2=O)ccc1O`, for which the MIC was > 25 µM (inactive).
Turning to `COc1cc(/C=C2\SC(=S)N(NC(=O)c3ccncc3)C2=O)ccc1O`, the MIC was > 25 µM (inactive).
In the case of `CCOc1cc(/C=C2\N=C(SC(C)C(N)=O)N(c3ccc(OC(F)F)cc3)C2=O)ccc1O` (stereo not given), the MIC is > 25 µM (inactive).
The same measure for `N#CC1(C#N)C2=C(CCCC2)NC(c2ccccc2)C1(C#N)C#N` (stereo not given): > 25 µM (inactive); for `CC(=O)c1ccc(Sc2ccccc2)c([N+](=O)[O-])c1`: > 25 µM (inactive).
With `Nc1ncnc2c1ncn2C1OC(CO)CC1O` (stereo not given), the MIC was > 25 µM (inactive).
In the case of `COc1cc(/C=C2\SC(=S)N(NC(=O)c3cccnc3)C2=O)ccc1O` it was > 25 µM (inactive); in that of `Cc1ccc(-c2nn3c(C)nnc3s2)cc1NC(=O)CSc1ccc(Cl)cc1`, > 25 µM (inactive).
As to `N#C/C(=C/c1ccc([N+](=O)[O-])o1)c1nc2ccccc2[nH]1`, the MIC is 1.6 µM (≈ 0.448 µg/mL).
In the case of `Cc1ccc2nc(/C(C#N)=C/c3ccc([N+](=O)[O-])o3)[nH]c2c1` it was 0.8 µM (≈ 0.235 µg/mL); in that of `O=C(COC(=O)Cc1ccc(S(=O)(=O)N2CCOCC2)s1)NCc1ccc(Cl)cc1`, > 25 µM (inactive).
As for `Cc1ccc(C(=O)c2no[n+]([O-])c2C(=O)c2ccc(C)cc2)cc1`, the MIC is 1.6 µM (≈ 0.516 µg/mL).
Regarding `Cc1ccc(Nc2c(-c3ccc(C)o3)nc3ncccn23)cc1`, the MIC was > 25 µM (inactive).
As to `O=C(Oc1c(-c2ccccc2)c(=O)n2c3c(cccc13)CC2)c1cccc([N+](=O)[O-])c1`, the MIC was > 25 µM (inactive).
As for `CCN1/C(=C\C=C\c2sc3ccccc3[n+]2CC)Sc2ccccc21`, the MIC was > 25 µM (inactive).
